Assay results taken from patent publication US6559133B2, “Use of flavone 8-acetic acid in vascular and cardiovascular interventions and acute coronary syndromes” (priority 2000, dated 2003).

Assays:
[1] = system: porcine common carotid arteries; assay: Vasoconstriction immediately distal to the dilatation site, from carotid angiograms; format: in vivo, pig; conditions: mean±SEM; p<0.001 vs placebo
Protocol: An 8 mm×3 cm polyethylene angioplasty catheter (Blue Max, Medi-tech, Watertown, Mass.) was advanced under fluoroscopic guidance to the left and then to the right common carotid arteries for arterial dilatation. Angioplasty was performed 30 minutes after starting treatment, between the first and third cervical vertebrae, using a standardized procedure (5 inflations of 30 seconds duration at 7 atmospheres, with 60 seconds between inflations). Carotid angiography was performed by injecting 6 ml of ionic contrast material (Renografin 76, Squibb, Princeton, N.J.) just prior to carotid dilatation, using a catheter (8 F) with a metal ring of known dimension (Cordis Corporation, Miami, Fla.). Spot films were also taken during balloon dilatation. […]
The severity of localized vasoconstriction was determined immediately distal to the dilatation site from angiograms of the common carotid arteries obtained before and after the dilatation procedure. Computer-assisted planimetry was used to measure the mean maximal narrowing in lumen diameter before and after the procedure, expressed as a percentage of the respective arterial dimension before dilatation (J. Y. T. Lam et al., “Is Vasospasm Related to Platelet Deposition? Relationship in a Porcine Preparation of Arterial Injury in Vivo,” Circulation 75: 243-248 (1987)).

[2] = Laboratory tests: aPTT and ear bleeding time; format: in vivo, pig
Protocol: The left femoral vein and artery and the right femoral vein were dissected. A 9 F sheath was placed in the left femoral artery, and 14 gauge angiocaths were inserted in the left and right femoral veins. […] All the lines for blood sampling were continuously flushed with 0.9% saline.
(§1) All blood samples were collected with the 2-syringe technique (0.13 M trisodium citrate as anticoagulant; anticoagulant:blood=1:10). […] Platelet count, hematocrit, aPTT, and fibrinogen were determined using standard laboratory methods (Mayo Clinic, Clinical Laboratories). […] Assays were performed as a single batch. The method of determination of FAA in plasma was that of L. Malspeis (personal communication). Briefly, plasma (0.25-0.50 ml) was diluted to 1 ml with 0.5 ml of 0.5 M sodium acetate (pH 3.0) and normal saline. After addition of diethyl ether (4 ml) tubes were shaken on a mechanical shaker for 15 minutes. Following low speed centrifugation, the ether phase was evaporated to dryness under a stream of nitrogen and the residue dissolved in mobile solvent prior to HPLC analysis. Samples were analyzed by reversed-phase HPLC on an IBM C18 (10 micron) column with a mobile solvent of methanol/water mixture. Detection was by UV absorbance at 254 nm. Standard curves were prepared by adding known amounts of FAA to blood blank plasma and analyzing as described above.

[3] = system: deeply injured porcine carotid artery; assay: Platelet and fibrin(ogen) deposition and mural thrombus after deep arterial injury by balloon angioplasty; format: in vivo, pig
Protocol: (§2) Twenty normal pigs of Babcock 4-way cross stock (a mixture of Landrace, Yorkshire, Hampshire, and Durock breeds) approximately 4 months old with a mean weight of 40±1 kg (approximately 1 m^2 body surface area) (P. L. Altman & D. S. Dittmer, “Metabolism” in Biological Handbooks (Federation of American Societies for Experimental Biology, Bethesda, Md., 1968), pp. 346-348), were obtained from local farmers. […] Loading dose and maintenance infusion were calculated based on preliminary pharmacokinetic experiments in pigs.
The model of deep arterial injury in the porcine carotid artery has been described in detail previously (P. M. Steele et al., “Balloon Angioplasty: Natural History of the Pathophysiologic Response to Injury in a Pig Model,” Cir. Res. 57: 105-112 (1985); M. Heras et al., “Hirudin, Heparin, and Placebo During Deep Arterial Injury in the Pig. The in Vivo Role of Thrombin in Platelet-Mediated Thrombosis,” Circulation 82: 1476-1484 (1990); J. Y. T. Lam et al., “Is Vasospasm Related to Platelet Deposition? Relationship in a Porcine Preparation of Arterial Injury in Vivo,” Circulation 75: 243-248 (1987)). Autologous platelets were labeled with […] of ^111Indium-tropolone and reinjected together with […] of ^125Iodine-labeled porcine fibrinogen on the day prior to the procedure M. Heras et al., “Hirudin, Heparin, and Placebo During Deep Arterial Injury in the Pig. The in Vivo Role of Thrombin in Platelet-Mediated Thrombosis,” Circulation 82: 1476-1484 (1990); J. Y. T. Lam et al., “Is Vasospasm Related to Platelet Deposition? Relationship in a Porcine Preparation of Arterial Injury in Vivo,” Circulation 75: 243-248 (1987); J. Mruk et al., “Does Anti-Thrombotic Therapy Influence Residual Thrombus After Thrombolysis of Platelet-Rich Thrombus?,” Circulation 93: 792-799 (1996)). On the day of surgery, the pigs were sedated with 1 g intramuscular ketamine (Ketaset, Bristol Laboratories, Syracuse, N.Y.), intubated and mechanically ventilated with room air (Harvard respirator, Harvard Apparatus, South Natick, Mass.). Anesthesia was maintained with a continuous infusion of etomidate (Abbott Laboratories, North Chicago, Ill.) 40 mg/l, fentanyl (Elkins-Sinn, Inc., Cherry Hill, N.J.) 10 mg/l, and ketamine 1,000 mg/l, at about 5 ml/minute. The ECG and intra-arterial pressure were continuously monitored throughout the procedure.
The left femoral vein and artery and the right femoral vein were dissected. A 9 F sheath was placed in the left femoral artery, and 14 gauge angiocaths were inserted in the left and right femoral veins. […] All the lines for blood sampling were continuously flushed with 0.9% saline. […]

[4] = system: human platelet-rich plasma; conditions: cited from earlier work
[5] = system: solid tumors in the mouse; conditions: mice; cited from earlier work
[6] = FAA pharmacokinetics and plasma levels in pigs (HPLC); format: in vivo, pig
Protocol: as §2, §1
The intravenous bolus and continuous infusion doses to maintain a plasma concentration of 500 μg/ml calculated from these values, were 5.5 gm/m^2 and 140 mg/min/m^2, respectively.

- Bleeding time after FAA in 4 of the animals ([2]; 4 of 5 animals, 210 seconds = 2 standard deviations above the mean laboratory value): more than 210 seconds
- Bleeding time after FAA ([2]; 5 animals, 30 minutes after starting infusion, before FAA 157±29 seconds): 522 ± 123 s
- concentration at 30 min ([6]; Babcock 4-way cross (Landrace, Yorkshire, Hampshire, Durock), pig, plasma, intravenous, 30 minutes after starting bolus 5.5 g/m^2 plus infusion 0.14 g/m^2/minute): 515 ± 23 µg/mL
- Plasma level of FAA at the end of the procedure ([6]; bolus 5.5 g/m^2 plus infusion 0.14 g/m^2/minute): 575 ± 36 µg/mL
- half-life ([6]; pig, plasma, two animals, intravenous bolus 1 gm/m^2, one compartment open model): 27.9 min
- Plasma clearance ([6]; two animals, intravenous bolus 1 gm/m^2, one compartment open model): 279 ml/min/m^2
Structure (SMILES): O=C(O)Cc1cccc2c(=O)cc(-c3ccccc3)oc12 [FAA, flavone-8-acetic acid]
- Vasoconstriction immediately distal to the area of dilatation [1]: 15±3%
- Fibrin(ogen) deposition ([3]; deeply injured segments, mean±SEM, p=0.08 vs placebo): 40±8 ×10^12 molecules/cm^2
- Incidence of very small mural thrombi, treated pigs ([3]; per animal, p=0.005, large thrombi in all placebo pigs): 40%
- Incidence of very small thrombi, deeply injured segments ([3]; per deeply injured segment, placebo 85% large thrombi): 30%
- Platelet deposition in deeply injured segments ([3]; pigs, FAA bolus 5.5 g/m^2 then infusion 0.14 g/m^2/minute, mean±SEM, p=0.001 vs placebo): 13±3 ×10^6/cm^2
- Ristocetin-induced platelet aggregation (vWF-GP Ibα-dependent) ([4]; FAA administered to patients with cancer): inhibited
- Aggregation induced by ADP, collagen, arachidonic acid and adrenalin ([4]; ex vivo and in vitro, human platelet-rich plasma): not inhibited
- Plasma ristocetin cofactor activity ([4]; human): unchanged
- Implantation of solid tumors [5]: inhibits implantation of solid tumors in mice
